# Test results published in patent US20110229499A1, “METHOD FOR TREATMENT OF VASCULAR HYPERPERMEABILITY” (priority 2010, published 2011).
# Tested on: Rat lung microvascular endothelial cells
# Assay: Adherens junction damage, beta catenin immunofluorescence
# Format: cell-based
# Settings: SCF 100 ng/ml pre-treatment 1 hour
# Method: Rat lung microvascular endothelial cells were grown on fibronectin coated chamber slides in complete MCDB-3 media for 24 hours. The cells were pre-treated with SCF (100 ng/ml) for 1 hour. The cells exposed to shock serum or were transfected with caspase-3 (5 μg/ml) for 60 minutes. Caspase-3 were exposed to TransIT (10 μl/ml) for 15 minutes before exposure to the cells. The cells were washed in PBS, permeabilized with Triton X-100 and fixed with 4% paraformaldehyde. The cells were then washed in PBS, blocked with 2.5% BSA-PBS and exposed to polyclonal antibody against β-catenin overnight at 4° C. The cells were washed, mounted in an antifade-DAPI mountant and visualized utilizing a fluorescent microscope.
substance,measurement,setting,value
"SCF: stem cell factor, a soluble factor (protein) produced by stem cells",caspase-3 mediated adherens junction disruption,caspase-3 5 μg/ml transfected 60 minutes,did not protect
same,shock serum-induced adherens junction disruption,shock serum 60 minutes,showed protection
